How the values were obtained:
Test in all cases: viability relative to DMSO control (fraction); higher = less drug effect (more viable cells)
Conditions in all cases: 48 h
[1] = tested on: primary AML patient cells (S072)
Procedure, shortened: (§1)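 Using 384-well plates with compounds already plated at five concentrations, one well per concentration, 4 × 10^4 primary mononuclear tumour cells were added per well. Cells were Ficoll-isolated from blood or bone marrow or came from processed lymph node, fresh or cryopreserved. They were kept for 48 h at 37 °C and 5% CO2 in RPMI-1640 supplemented with penicillin/streptomycin, L-glutamine and human serum, and viability was read as CellTiter-Glo luminescence relative to the median of 16 inner DMSO wells.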

[2] = tested on: primary CLL patient cells (S031)
Procedure, shortened: as §1

[3] = tested on: primary MCL patient cells (S053)
Procedure, shortened: as §1

[4] = tested on: primary AML patient cells (S085)
Procedure, shortened: as §1

[5] = tested on: primary CLL patient cells (S043)
Procedure, shortened: as §1

[6] = tested on: primary ALL patient cells (S048)
Procedure, shortened: as §1

[7] = tested on: primary BL patient cells (S005)
Procedure, shortened: as §1

[8] = tested on: primary AML patient cells (S091)
Procedure, shortened: as §1

[9] = tested on: primary AML patient cells (S079)
Procedure, shortened: as §1

[10] = tested on: primary AML patient cells (S019)
Procedure, shortened: as §1

[11] = tested on: primary AML patient cells (S037)
Procedure, shortened: as §1

[12] = tested on: primary MCL patient cells (S068)
Procedure, shortened: as §1

[13] = tested on: primary FL patient cells (S022)
Procedure, shortened: as §1

[14] = tested on: primary AML patient cells (S071)
Procedure, shortened: as §1

[15] = tested on: primary AML patient cells (S089)
Procedure, shortened: as §1

[16] = tested on: primary AML patient cells (S017)
Procedure, shortened: as §1

[17] = tested on: primary AML patient cells (S012)
Procedure, shortened: as §1

[18] = tested on: primary AML patient cells (S002)
Procedure, shortened: as §1

[19] = tested on: primary AML patient cells (S025)
Procedure, shortened: as §1

[20] = tested on: primary AML patient cells (S056)
Procedure, shortened: as §1

Structure (SMILES): CC(C)C[C@H](NC(=O)CNC(=O)c1cc(Cl)ccc1Cl)B(O)O [Ixazomib]
- viability ([1]; 0.008 µM): 1.09
- viability ([1]; 0.04 µM): 0.984
- viability ([1]; 0.2 µM): 0.838
- viability ([1]; 1 µM): 0.922
- viability ([1]; 5 µM): 0.934
- viability ([2]; 0.008 µM): 0.876
- viability ([2]; 0.04 µM): 1.04
- viability ([2]; 0.2 µM): 1.01
- viability ([2]; 1 µM): 1.05
- viability ([2]; 5 µM): 1.02
- viability ([3]; 0.008 µM): 0.872
- viability ([3]; 0.04 µM): 0.954
- viability ([3]; 0.2 µM): 0.945
- viability ([3]; 1 µM): 0.972
- viability ([3]; 5 µM): 0.883
- viability ([4]; 0.008 µM): 0.842
- viability ([4]; 0.04 µM): 0.977
- viability ([4]; 0.2 µM): 0.807
- viability ([4]; 1 µM): 0.911
- viability ([4]; 5 µM): 1.08
- viability ([5]; 0.008 µM): 0.915
- viability ([5]; 0.04 µM): 0.73
- viability ([5]; 0.2 µM): 0.987
- viability ([5]; 1 µM): 0.74
- viability ([5]; 5 µM): 0.781
- viability ([6]; 0.008 µM): 1.04
- viability ([6]; 0.04 µM): 0.94
- viability ([6]; 0.2 µM): 0.961
- viability ([6]; 1 µM): 0.994
- viability ([6]; 5 µM): 1.05
- viability ([7]; 0.008 µM): 1.61
- viability ([7]; 0.04 µM): 0.944
- viability ([7]; 0.2 µM): 1.56
- viability ([7]; 1 µM): 0.939
- viability ([7]; 5 µM): 0.945
- viability ([8]; 0.008 µM): 1.07
- viability ([8]; 0.04 µM): 0.874
- viability ([8]; 0.2 µM): 1.13
- viability ([8]; 1 µM): 0.811
- viability ([8]; 5 µM): 0.8
- viability ([9]; 0.008 µM): 0.988
- viability ([9]; 0.04 µM): 0.914
- viability ([9]; 0.2 µM): 0.888
- viability ([9]; 1 µM): 1
- viability ([9]; 5 µM): 1.02
- viability ([10]; 0.008 µM): 0.525
- viability ([10]; 0.04 µM): 0.757
- viability ([10]; 0.2 µM): 0.633
- viability ([10]; 1 µM): 0.786
- viability ([10]; 5 µM): 0.936
- viability ([11]; 0.008 µM): 0.982
- viability ([11]; 0.04 µM): 0.955
- viability ([11]; 0.2 µM): 0.939
- viability ([11]; 1 µM): 0.937
- viability ([11]; 5 µM): 0.955
- viability ([12]; 0.008 µM): 0.998
- viability ([12]; 0.04 µM): 0.9
- viability ([12]; 0.2 µM): 1.04
- viability ([12]; 1 µM): 1.04
- viability ([12]; 5 µM): 1.05
- viability ([13]; 0.008 µM): 0.894
- viability ([13]; 0.04 µM): 1
- viability ([13]; 0.2 µM): 0.954
- viability ([13]; 1 µM): 0.999
- viability ([13]; 5 µM): 0.979
- viability ([14]; 0.008 µM): 1.01
- viability ([14]; 0.04 µM): 0.972
- viability ([14]; 0.2 µM): 0.995
- viability ([14]; 1 µM): 0.98
- viability ([14]; 5 µM): 0.974
- viability ([15]; 0.008 µM): 1.07
- viability ([15]; 0.04 µM): 0.69
- viability ([15]; 0.2 µM): 0.968
- viability ([15]; 1 µM): 0.583
- viability ([15]; 5 µM): 0.627
- viability ([16]; 0.008 µM): 0.923
- viability ([16]; 0.04 µM): 0.963
- viability ([16]; 0.2 µM): 0.834
- viability ([16]; 1 µM): 0.942
- viability ([16]; 5 µM): 0.979
- viability ([17]; 0.008 µM): 0.975
- viability ([17]; 0.04 µM): 0.971
- viability ([17]; 0.2 µM): 1.1
- viability ([17]; 1 µM): 1.01
- viability ([17]; 5 µM): 0.978
- viability ([18]; 0.008 µM): 0.843
- viability ([18]; 0.04 µM): 0.979
- viability ([18]; 0.2 µM): 0.932
- viability ([18]; 1 µM): 0.972
- viability ([18]; 5 µM): 0.933
- viability ([19]; 0.008 µM): 0.932
- viability ([19]; 0.04 µM): 0.95
- viability ([19]; 0.2 µM): 0.952
- viability ([19]; 1 µM): 1.02
- viability ([19]; 5 µM): 1.08
- viability ([20]; 0.008 µM): 0.755
- viability ([20]; 0.04 µM): 0.894
- viability ([20]; 0.2 µM): 1.11
- viability ([20]; 1 µM): 0.9
- viability ([20]; 5 µM): 0.893

Source: the supplement of paper PMC10733146
